Where a name gives a salt, the structure may show the parent alone.
Tests used:
[1] = target: T1, recombinant human Lp-PLA2 (Homo sapiens, UniProt Q13093); assay: Recombinant human Lp-PLA2 assay (rhLp-PLA2, PED6 assay); type: biochemical; settings: recombinant human Lp-PLA2, PED6 substrate; upper limit for pIC50 in this assay is 9.3
T1 sequence (Q13093 22-441): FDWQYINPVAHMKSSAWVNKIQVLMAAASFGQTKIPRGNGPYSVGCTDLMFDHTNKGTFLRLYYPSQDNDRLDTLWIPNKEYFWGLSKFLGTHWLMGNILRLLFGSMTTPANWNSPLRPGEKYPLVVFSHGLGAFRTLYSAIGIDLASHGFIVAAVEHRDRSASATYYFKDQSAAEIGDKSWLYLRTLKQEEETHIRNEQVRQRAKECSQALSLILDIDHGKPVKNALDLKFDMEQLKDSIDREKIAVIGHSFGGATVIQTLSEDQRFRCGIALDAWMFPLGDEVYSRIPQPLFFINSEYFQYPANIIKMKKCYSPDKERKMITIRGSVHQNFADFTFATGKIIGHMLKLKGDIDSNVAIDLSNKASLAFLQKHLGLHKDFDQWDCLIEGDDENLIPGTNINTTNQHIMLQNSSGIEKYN
Source text: (1) Recombinant Human Lp-PLA2 Assay (rhLp-PLA2) (Also Referred to as “PED6” Assay)
N-((6-(2,4-dinitrophenyl)amino)-hexanoyl)-2-(4,4-difluoro-5,7-dimethyl-4-bora-3a,4a-diaza-s-indacene-3-pentanoyl)-1-hexadecanoyl-sn-glycero-3-phosphoethanolamine, triethylammonium salt (PED6) is a commercially available fluorescently-labeled phospholipid, which is commercially available from Invitrogene and Molecular Probes. There is a quenching […] and a Bodipy fluorescein (FL) group in the sn2 position. Upon cleavage with Lp-PLA2, the Bodipy FL group is liberated and then may result in an increase in fluorescence. Inhibitors of Lp-PLA2 therefore prevent this cleavage and no fluorescent increase is observed.
The PED6 assay was run as an unquenched 10 μL assay. The source plate containing the compounds to be tested was prepared by making 1:3 (by volume) serial dilution of the compounds within DMSO on 384-well microplate. Then, 0.01 μL of the compounds on compound source plate were transferred into 384 well Greiner 784076 (black) plates using ECHO liquid dispenser. 5 µL of recombinant human Lp-PLA2 enzyme (4 nM (or 110 pM) rhLp-PLA2 in assay buffer of 50 mM HEPES, pH 7.4, 150 mM NaCl, 1 mM CHAPS) was added to each well of the plate. Plates were centrifuged for 10 sec at 500 rpm. After 30 minutes preincubation, 5 µL of substrate (4 μM (or 5 μM) PED6 [from 5 mM DMSO stock] in assay buffer of 50 mM HEPES, pH 7.4, 150 mM NaCl, 1 mM CHAPS) was added to 384 well Greiner 784076 (black) plates. Plates were centrifuged for 10 sec at 500 rpm. The plate was covered to protect it from light and incubated for 20 min at room temperature. The plates were read for fluorescence intensity at ex: 480/em: 540 using ViewLux microplate imager for Envision spectrofluroimeters pIC50 data, curve and QC analysis was conducted by using XL fit module in Excel.
The compounds described below were tested generally according to the PED6 assay described above.

[2] = target: T2, Lp-PLA2 in human plasma (Homo sapiens, UniProt Q13093); assay: Lp-PLA2 human plasma assay (Thio-PAF assay); type: biochemical; settings: pooled human plasma, 2-thio-PAF substrate; read-out: pIC50 in the thio-PAF assay (converted)
T2 construct: This assay may detect the activity of Lp-PLA2 in human plasma; from tissue; host or cells: pooled human plasma
T2 sequence (Q13093 22-441): T1 sequence (Q13093 22-441)
Source text: (3) Lipoprotein-Associated Phospholipase A2 (Lp-PLA2) Human Plasma Assay (Also Referred to as “Thio-PAF Assay”)
The human plasma assay utilizes a thioester analog of PAF (phosphatidylcholine), where hydrolysis yields to the formation of a phospholipid containing a free thiol group. The amount of thiol is quantitated continuously by reacting with CPM (7-diethylamino-3-(4′-maleimidylphenyl)-4-methylcoumarin), a maleimide which increases in fluoresence after Michael addition of thiols. This assay may detect the activity of Lp-PLA2 in human plasma, as determined by specific inhibition by Lp-PLA2 inhibitors.
The thio-PAF assay was run as a quenched 15 μL assay. Compounds source plate was prepared by making 1:3 (by volume) serial dilution of the compounds into pure DMSO on 384-well microplate. 0.01 μL of compounds on compound source plate were transferred to 384 well Greiner 784076 (black) low-volume plates by ECHO liquid dispenser. 8 μL pooled human plasma, which was previously aliquoted and frozen, was added. Plates were centrifuged for 10 sec at 500 rpm. After 30 minutes preincubation, 2 μL of substrate solution comprising 2.5 mM 2-thio-PAF [from ethanol stock], 32 μM CPM [from a DMSO stock] and 3.2 mM NEM (N-ethylmaleimide) [made fresh daily in DMSO] in assay buffer of 50 mM HEPES, pH 7.4, 150 mM NaCl, 1 mM CHAPS was added to 384 well Greiner 784076 (black) low-volume plates by BRAVO liquid handling station. After 2 mins, reaction was quenched with 5 μL of 5% aqueous trifluoroacetic acid (TFA). Plates were covered to protect from light and incubated for 40 min at room temperature. Plates were read at ex: 380/em: 485 using-Envision microplate reader. pIC50 data, curve and QC analysis was conducted by using XLFit module in Excel.

N#Cc1ccc(Oc2ccc(COc3cc4n(c(=O)n3)CCN4)cc2F)cc1C(F)(F)F [Example 118, 4-(2-fluoro-4-(((5-oxo-1,2,3,5-tetrahydroimidazo[1,2-c]pyrimidin-7-yl)oxy)methyl)p-hen-oxy)-2-(trifluoromethyl)benzonitrile] gave an IC50 [1] of 0.794 nM and an IC50 [2] of at most 100 nM.

Work on O=c1nc(OCc2ccc(Oc3ccnc(C(F)(F)F)c3)c(F)c2)cc2n1CCN2 [Example 119, 7-((3-fluoro-4-((2-(trifluoromethyl)pyridin-4-yl)oxy)benzyl)oxy)-2,3-dihydroimidazo[1,2-c]pyrimidin-5(1H)-one] yielded an IC50 [1] of 2.51 nM and an IC50 [2] of at most 100 nM.

Compound N#Cc1cc(COc2cc3n(c(=O)n2)CCN3)ccc1Oc1cc(F)cc(C(F)(F)F)c1 [Example 120, 2-(3-fluoro-5-(trifluoromethyl)phenoxy)-5-(((5-oxo-1,2,3,5-tetrahydroimidazo[1,2-c]pyrimidin-7-yl)oxy)methyl)benzonitrile] has an IC50 [1] of at most 10 nM and an IC50 [2] of at most 100 nM.

Compound CN1CCn2c1cc(OCc1ccc(Oc3ccc(C#N)c(Cl)c3)c(C#N)c1)nc2=O [Example 122, 2-chloro-4-(2-cyano-4-(((1-methyl-5-oxo-1,2,3,5-tetrahydroimidazo[1,2-c]pyrimidin-7-yl)oxy)methyl)phenoxy)benzonitrile] has an IC50 [1] of at most 10 nM and an IC50 [2] of at most 100 nM.

For CN1CCn2c1cc(OCc1ccc(Oc3ccnc(C(F)(F)F)c3)cc1)nc2=O [Example 123, 1-methyl-7-((4-((2-(trifluoromethyl)pyridin-4-yl)oxy)benzyl)oxy)-2,3-dihydroimid-azo[1,2-c]pyrimidin-5(1H)-one], the IC50 [1] was at most 10 nM and the IC50 [2] was at most 1000 nM.

N#Cc1cc(COc2cc3n(c(=O)n2)CCN3)ccc1Oc1cncc(C(F)(F)F)c1 [Example 124, 5-(((5-oxo-1,2,3,5-tetrahydroimidazo[1,2-c]pyrimidin-7-yl)oxy)methyl)-2-((5-(trifluoromethyl)pyridin-3-yl)oxy)benzonitrile, trifluoroacetic acid salt] was tested, and the IC50 [1] was at most 10 nM and the IC50 [2] was at most 100 nM.

For CN1CCn2c1cc(OCc1ccc(Oc3ccc(Cl)c(C#N)c3)c(F)c1)nc2=O [Example 125, 2-chloro-5-(2-fluoro-4-(((1-methyl-5-oxo-1,2,3,5-tetrahydroimidazo[1,2-c]pyrimidin-7-yl)oxy)methyl)phenoxy)benzonitrile], the IC50 [1] was at most 1 nM and the IC50 [2] was at most 100 nM.

Compound CN1CCn2c1cc(OCc1ccc(Oc3cncc(C(F)(F)F)c3)c(F)c1)nc2=O [Example 126, 7-((3-fluoro-4-((5-(trifluoromethyl)pyridin-3-yl)oxy)benzyl)oxy)-1-methyl-2,3-dihydroimidazo[1,2-c]pyrimidin-5(1H)-one] has an IC50 [1] of at most 10 nM and an IC50 [2] of at most 100 nM.

Compound CN1CCn2c1cc(OCc1ccc(Oc3ccc(C#N)c(Cl)c3)c(F)c1)nc2=O [Example 128, 2-chloro-4-(2-fluoro-4-(((1-methyl-5-oxo-1,2,3,5-tetrahydroimidazo[1,2-c]pyrimidin-7-yl)oxy)methyl)phenoxy)benzonitrile] has an IC50 [1] of at most 1 nM and an IC50 [2] of at most 100 nM.

Compound CN1CCn2c1cc(OCc1ccc(Oc3ccnc(C#N)c3)c(F)c1)nc2=O [Example 129, 4-(2-fluoro-4-(((1-methyl-5-oxo-1,2,3,5-tetrahydroimidazo[1,2-c]pyrimidin-7-yl)oxy)methyl)phenoxy)picolinonitrile, trifluoroacetic acid salt] has an IC50 [1] of at most 10 nM and an IC50 [2] of at most 1000 nM.

Compound CN1CCn2c1cc(OCc1ccc(Oc3ccnc(C#N)c3)c(C#N)c1)nc2=O [Example 130, 4-(2-cyano-4-(((1-methyl-5-oxo-1,2,3,5-tetrahydroimidazo[1,2-c]pyrimidin-7-yl)oxy)methyl)phenoxy)picolinonitrile, trifluoroacetic acid salt] has an IC50 [1] of at most 10 nM and an IC50 [2] of at most 100 nM.

With CN1CCn2c1cc(OCc1ccc(Oc3cncc(Cl)c3)c(C#N)c1)nc2=O [Example 134, 2-((5-chloropyridin-3-yl)oxy)-5-(((1-methyl-5-oxo-1,2,3,5-tetrahydroimidazo[1,2-c]pyrimidin-7-yl)oxy)methyl)benzonitrile] the IC50 [1] was at most 10 nM and the IC50 [2] was at most 100 nM.

CN1CCn2c1cc(OCc1ccc(Oc3ccc(C#N)c(F)c3)c(F)c1)nc2=O [Example 136, 2-fluoro-4-(2-fluoro-4-(((1-methyl-5-oxo-1,2,3,5-tetrahydroimidazo[1,2-c]pyrimidin-7-yl)oxy)methyl)phenoxy)benzonitrile] gave an IC50 [1] of at most 10 nM and an IC50 [2] of at most 1000 nM.

In the case of CN1CCn2c1cc(OCc1ccc(Oc3ccc(F)c(C#N)c3)c(F)c1)nc2=O [Example 139, 2-fluoro-5-(2-fluoro-4-(((1-methyl-5-oxo-1,2,3,5-tetrahydroimidazo[1,2-c]pyrimidin-7-yl)oxy)methyl)phenoxy)benzonitrile], the IC50 [1] is reported as at most 10 nM and the IC50 [2] is reported as at most 1000 nM.

In the case of CN1CCn2c1cc(OCc1cc(F)c(Oc3ccc(C(F)(F)F)c(F)c3)c(F)c1)nc2=O [Example 140, 7-((3,5-difluoro-4-(3-fluoro-4-(trifluoromethyl)phenoxy)benzyl)oxy)-1-methyl-2,3-dihydroimidazo[1,2-c]pyrimidin-5(I H)-one], the IC50 [1] is reported as at most 1 nM and the IC50 [2] is reported as at most 100 nM.

Work on CN1CCn2c1cc(OCc1cc(F)c(Oc3ccc(C#N)c(C(F)(F)F)c3)c(F)c1)nc2=O [Example 144, 4-(2,6-difluoro-4-(((1-methyl-5-oxo-1,2,3,5-tetrahydroimidazo[1,2-c]pyrimidin-7-yl)oxy)methyl)phenoxy)-2-(trifluoromethyl)benzonitrile] yielded an IC50 [1] of under 0.501 nM and an IC50 [2] of at most 100 nM.

In the case of CN1CCn2c1cc(OCc1cc(F)c(Oc3cncc(C(F)(F)F)c3)c(F)c1)nc2=O [Example 147, 7-((3,5-difluoro-4-((5-(trifluoromethyl)pyridin-3-yl)oxy)benzyl)oxy)-1-methyl-2,3-dihydroimidazo[1,2-c]pyrimidin-5(1H)-one], the IC50 [1] is reported as 1 nM and the IC50 [2] is reported as at most 100 nM.

Cc1cc(Oc2ccc(COc3cc4n(c(=O)n3)CCN4C)cc2F)ccc1C#N [Example 149, 4-(2-fluoro-4-(((1-methyl-5-oxo-1,2,3,5-tetrahydroimidazo[1,2-c]pyrimidin-7-yl)oxy)methyl)phenoxy)-2-methylbenzonitrile] showed an IC50 [1] of at most 10 nM and an IC50 [2] of at most 1000 nM.

With CN1CCn2c1cc(OCc1ccc(Oc3cc(C#N)cc(C(F)(F)F)c3)c(F)c1)nc2=O [Example 150, 3-(2-fluoro-4-(((1-methyl-5-oxo-1,2,3,5-tetrahydroimidazo[1,2-c]pyrimidin-7-yl)oxy)methyl)phenoxy)-5-(trifluoromethyl)benzonitrile, trifluoroacetic acid salt] the IC50 [1] was at most 10 nM and the IC50 [2] was at most 100 nM.
